From BindingDB's records for doi:10.1021/acs.jmedchem.7b01344 (Metabasis Therapeutics, 2017)

Tests used:
[1] = target: Prostaglandin D2 receptor 2 (CRTH2) (Homo sapiens) (UniProt Q9Y5Y4); assay: Binding affinity to DP2 receptor (unknown origin)
[2] = target: Prostaglandin D2 receptor 2 (CRTH2) (Homo sapiens) (UniProt Q9Y5Y4); assay: Binding affinity to DP2 receptor (unknown origin) in presence of 10% human serum

Chain of Prostaglandin D2 receptor 2 (CRTH2) (Homo sapiens) (Q9Y5Y4 whole entry, looked up): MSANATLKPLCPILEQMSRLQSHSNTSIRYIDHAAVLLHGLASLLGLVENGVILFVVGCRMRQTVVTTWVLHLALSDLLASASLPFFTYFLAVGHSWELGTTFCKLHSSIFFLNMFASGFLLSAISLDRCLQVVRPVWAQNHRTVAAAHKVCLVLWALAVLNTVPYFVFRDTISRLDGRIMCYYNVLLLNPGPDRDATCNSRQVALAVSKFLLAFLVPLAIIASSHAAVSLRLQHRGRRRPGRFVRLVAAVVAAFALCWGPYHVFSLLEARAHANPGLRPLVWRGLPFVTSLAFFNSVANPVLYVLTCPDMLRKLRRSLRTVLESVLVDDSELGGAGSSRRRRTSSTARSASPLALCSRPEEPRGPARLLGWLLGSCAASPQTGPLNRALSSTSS

Cc1ccc(Oc2nc3cc(-c4ccc(-c5ccccc5)cc4)c(Cl)cc3[nH]2)cc1C(=O)O
IC50 [1]: 1800 nM
IC50 [2]: > 86000 nM
